Assay results reported in ChEMBL document CHEMBL1909046, “DrugMatrix in vitro pharmacology data”.

Key:
[1] = biological target: Beta-1 adrenergic receptor (Homo sapiens, UniProt P08588); assay: DRUGMATRIX: Adrenergic beta1 radioligand binding (ligand: [125I] Cyanopindolol); type: cell membranes, CHO-K1, Membrane; settings: cho-k1; Not Active = under 50% inhibition at 10 µM
[2] = DRUGMATRIX: Calcium Channel Type L, Benzothiazepine radioligand binding (ligand: [3H] Diltiazem); type: cell membranes, Rattus norvegicus, Wistar, Brain, Membrane; settings: Not Active = under 50% inhibition at 10 µM
[3] = biological target: T1, C-X-C chemokine receptor type 2 (Homo sapiens, UniProt P25025); type: cell membranes, Membrane; settings: cho-k1; note: in other assays of this panel Not Active means under 50% inhibition at 10 µM
T1 sequence (P25025 whole entry): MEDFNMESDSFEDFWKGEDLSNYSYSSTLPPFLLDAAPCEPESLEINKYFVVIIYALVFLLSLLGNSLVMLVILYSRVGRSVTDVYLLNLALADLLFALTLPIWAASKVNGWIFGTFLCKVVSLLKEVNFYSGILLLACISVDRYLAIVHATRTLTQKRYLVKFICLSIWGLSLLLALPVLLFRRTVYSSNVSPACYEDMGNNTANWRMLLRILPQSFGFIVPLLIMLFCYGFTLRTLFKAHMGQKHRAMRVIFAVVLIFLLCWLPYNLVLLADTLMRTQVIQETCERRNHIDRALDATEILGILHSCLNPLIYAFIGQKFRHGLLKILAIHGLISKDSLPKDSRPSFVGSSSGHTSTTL

[4] = biological target: T2, Cysteinyl leukotriene receptor 1 (Homo sapiens, UniProt Q9Y271); type: cell membranes, Membrane; settings: cho-k1; note: in other assays of this panel Not Active means under 50% inhibition at 10 µM
T2 sequence (Q9Y271 whole entry): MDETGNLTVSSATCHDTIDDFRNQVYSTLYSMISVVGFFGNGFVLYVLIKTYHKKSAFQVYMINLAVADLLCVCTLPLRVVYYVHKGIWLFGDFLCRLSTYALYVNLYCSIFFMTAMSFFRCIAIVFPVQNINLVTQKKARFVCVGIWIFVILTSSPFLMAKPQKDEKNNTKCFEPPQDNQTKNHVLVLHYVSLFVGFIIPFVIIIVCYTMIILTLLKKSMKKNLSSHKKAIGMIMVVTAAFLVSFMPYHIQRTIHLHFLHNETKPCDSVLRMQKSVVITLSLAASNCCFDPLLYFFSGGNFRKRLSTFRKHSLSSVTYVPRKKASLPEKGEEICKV

Cytochrome P450 2A6 = biological target: T3, Cytochrome P450 2A6 (Homo sapiens, UniProt P11509); settings: bti-tn-5b1-4; note: in other assays of this panel Not Active means under 50% inhibition at 10 µM
T3 sequence (P11509 whole entry): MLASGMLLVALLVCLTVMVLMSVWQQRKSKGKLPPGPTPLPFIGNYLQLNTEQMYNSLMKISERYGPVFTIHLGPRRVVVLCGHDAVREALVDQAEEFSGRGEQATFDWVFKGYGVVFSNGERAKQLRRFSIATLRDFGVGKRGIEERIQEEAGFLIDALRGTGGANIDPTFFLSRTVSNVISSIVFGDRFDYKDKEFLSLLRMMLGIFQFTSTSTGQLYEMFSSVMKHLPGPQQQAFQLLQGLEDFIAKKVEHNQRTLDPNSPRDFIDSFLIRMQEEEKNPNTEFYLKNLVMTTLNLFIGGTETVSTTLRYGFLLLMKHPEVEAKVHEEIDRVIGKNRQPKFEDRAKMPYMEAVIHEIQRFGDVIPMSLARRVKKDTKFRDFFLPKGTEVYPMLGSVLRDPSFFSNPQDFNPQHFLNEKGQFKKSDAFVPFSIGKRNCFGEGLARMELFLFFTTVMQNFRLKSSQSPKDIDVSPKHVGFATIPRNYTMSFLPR

Cytochrome P450 2C19 = Cytochrome P450 2C19 (Homo sapiens, UniProt P33261); settings: bti-tn-5b1-4; note: in other assays of this panel Not Active means under 50% inhibition at 10 µM
Cytochrome P450 2C19, sequence (P33261 whole entry): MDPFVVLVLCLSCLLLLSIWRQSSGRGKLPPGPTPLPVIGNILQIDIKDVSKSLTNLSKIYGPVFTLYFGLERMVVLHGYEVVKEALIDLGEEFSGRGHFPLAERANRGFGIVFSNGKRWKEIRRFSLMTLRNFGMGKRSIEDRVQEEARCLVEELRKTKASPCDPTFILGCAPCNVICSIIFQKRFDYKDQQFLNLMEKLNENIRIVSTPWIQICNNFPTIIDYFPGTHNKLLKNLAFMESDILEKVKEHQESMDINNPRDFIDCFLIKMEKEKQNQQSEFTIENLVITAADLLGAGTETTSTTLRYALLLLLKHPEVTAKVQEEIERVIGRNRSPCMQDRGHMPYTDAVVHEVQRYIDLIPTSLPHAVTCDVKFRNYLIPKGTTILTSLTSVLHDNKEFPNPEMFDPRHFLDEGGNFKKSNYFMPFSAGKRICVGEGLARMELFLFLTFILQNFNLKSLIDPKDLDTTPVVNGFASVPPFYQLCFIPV

Beta-1 adrenergic receptor, sequence (P08588 whole entry): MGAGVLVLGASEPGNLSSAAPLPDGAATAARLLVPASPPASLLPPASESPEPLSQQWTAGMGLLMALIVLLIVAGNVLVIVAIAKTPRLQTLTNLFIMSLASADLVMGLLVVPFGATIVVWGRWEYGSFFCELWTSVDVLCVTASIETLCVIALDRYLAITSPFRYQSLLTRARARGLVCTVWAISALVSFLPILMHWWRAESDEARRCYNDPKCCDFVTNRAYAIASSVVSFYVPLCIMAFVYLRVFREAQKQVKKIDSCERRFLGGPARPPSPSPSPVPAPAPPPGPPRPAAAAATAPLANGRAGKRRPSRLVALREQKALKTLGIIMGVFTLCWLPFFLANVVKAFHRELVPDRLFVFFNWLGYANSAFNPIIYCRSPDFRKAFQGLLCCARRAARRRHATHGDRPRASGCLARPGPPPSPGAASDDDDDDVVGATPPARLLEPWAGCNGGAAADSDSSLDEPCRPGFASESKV

O=C(c1ccccc1C(F)(F)F)N1CCC(Cc2ccccc2)CC1
Not Active: IC50 [1] | IC50 [2] | Ki [2] | IC50 [3] | IC50 [4] | IC50 (Cytochrome P450 2A6) | Ki (Cytochrome P450 2A6)

O=C/C=C/c1ccccc1
Not Active: IC50 [1] | IC50 [2] | Ki [2] | IC50 [3] | IC50 [4] | IC50 (Cytochrome P450 2A6) | Ki (Cytochrome P450 2A6) | IC50 (Cytochrome P450 2C19) | Ki (Cytochrome P450 2C19)

Nc1ccc2c3c(cccc13)C(=O)NC2=O
Not Active: IC50 [1] | IC50 [2] | Ki [2] | IC50 [3] | IC50 [4] | IC50 (Cytochrome P450 2A6) | Ki (Cytochrome P450 2A6) | IC50 (Cytochrome P450 2C19) | Ki (Cytochrome P450 2C19)

COc1ccc(C(=O)N2CCCC2=O)cc1
Not Active: IC50 [1] | IC50 [2] | Ki [2] | IC50 [3] | IC50 [4] | IC50 (Cytochrome P450 2A6) | Ki (Cytochrome P450 2A6)

O=c1cnn([C@@H]2O[C@H](CO)[C@@H](O)[C@H]2O)c(=O)[nH]1 [6-AZAURIDINE]
Not Active: IC50 [1] | IC50 [2] | Ki [2] | IC50 [3] | IC50 [4] | IC50 (Cytochrome P450 2A6) | Ki (Cytochrome P450 2A6) | IC50 (Cytochrome P450 2C19) | Ki (Cytochrome P450 2C19)

CC[C@H](C)[C@H]1O[C@]2(C=C[C@@H]1C)C[C@@H]1C[C@@H](C/C=C(\C)[C@@H](O[C@H]3C[C@H](OC)[C@@H](O[C@H]4C[C@H](OC)[C@@H](O)[C@H](C)O4)[C@H](C)O3)[C@@H](C)/C=C/C=C3\CO[C@@H]4[C@H](O)C(C)=C[C@@H](C(=O)O1)[C@]34O)O2.CO[C@H]1C[C@H](O[C@H]2[C@H](C)O[C@@H](O[C@@H]3/C(C)=C/C[C@@H]4C[C@@H](C[C@]5(C=C[C@H](C)[C@@H](C(C)C)O5)O4)OC(=O)[C@@H]4C=C(C)[C@@H](O)[C@H]5OC/C(=C\C=C\[C@@H]3C)[C@]54O)C[C@@H]2OC)O[C@@H](C)[C@@H]1O [ABAMECTIN]
Not Active: IC50 [1] | IC50 [2] | Ki [2] | IC50 [3] | IC50 [4] | IC50 (Cytochrome P450 2A6) | Ki (Cytochrome P450 2A6) | IC50 (Cytochrome P450 2C19) | Ki (Cytochrome P450 2C19)

NCCCC(O)(P(=O)(O)O)P(=O)(O)O [ALENDRONIC ACID]
Not Active: IC50 [1] | IC50 [2] | Ki [2] | IC50 [3] | IC50 [4] | IC50 (Cytochrome P450 2A6) | Ki (Cytochrome P450 2A6)

Cc1nnc2n1-c1ccc(Cl)cc1C(c1ccccc1)=NC2 [ALPRAZOLAM]
Not Active: IC50 [1] | IC50 [2] | Ki [2] | IC50 [3] | IC50 [4] | IC50 (Cytochrome P450 2A6) | Ki (Cytochrome P450 2A6) | IC50 (Cytochrome P450 2C19) | Ki (Cytochrome P450 2C19)

Cn1c(=O)c2[nH]cnc2n(C)c1=O.Cn1c(=O)c2[nH]cnc2n(C)c1=O.NCCN [AMINOPHYLLINE]
Not Active: IC50 [1] | IC50 [2] | Ki [2] | IC50 [3] | IC50 [4] | IC50 (Cytochrome P450 2A6) | Ki (Cytochrome P450 2A6) | IC50 (Cytochrome P450 2C19) | Ki (Cytochrome P450 2C19)

CN1[C@@H]2CC[C@H]1C[C@@H](OC(=O)C(CO)c1ccccc1)C2 (stereo partly drawn) [ATROPINE]
Not Active: IC50 [1] | IC50 [2] | Ki [2] | IC50 [3] | IC50 [4] | IC50 (Cytochrome P450 2A6) | Ki (Cytochrome P450 2A6)

Nc1ccn([C@@H]2O[C@H](CO)[C@@H](O)[C@@H]2O)c(=O)n1 [CYTARABINE]
Not Active: IC50 [1] | IC50 [2] | Ki [2] | IC50 [3] | IC50 [4] | IC50 (Cytochrome P450 2A6) | Ki (Cytochrome P450 2A6)

C[C@@H]1C[C@H]2[C@@H]3CCC4=CC(=O)C=C[C@]4(C)[C@@]3(F)[C@@H](O)C[C@]2(C)[C@@]1(O)C(=O)CO [DEXAMETHASONE]
Not Active: IC50 [1] | IC50 [2] | Ki [2] | IC50 [3] | IC50 [4] | IC50 (Cytochrome P450 2A6) | Ki (Cytochrome P450 2A6)

CC[C@H]1CN2CCc3cc(OC)c(OC)cc3[C@@H]2C[C@@H]1C[C@H]1NCCc2cc(OC)c(OC)cc21 [EMETINE]
2090 nM: Ki ([2]; read-out: Ki)
Not Active: IC50 [1] | IC50 [3] | IC50 [4] | IC50 (Cytochrome P450 2A6) | Ki (Cytochrome P450 2A6)
2360 nM: IC50 ([2]; read-out: IC50)
